In PubChem BioAssay AID602210 (Sanford-Burnham Center for Chemical Genomics, 2012):
The source made the active and inactive calls. No rule for the calls is given here.

Assay: H9c2 cardiomyoblast viability modulators under 2-DG – cell-based, ATPlite luminescence, rat, set 2, myocardial damage modulator project, dose response (AID 602210)
Conditions: H9c2 rat cardiomyoblasts, 2-deoxyglucose-induced death, 2 h

SMILES | IC50
COc1cc(NC(=O)c2cccc3c(-c4cnn(C)c4)coc23)cc(OC)c1OC | > 79 µM (inactive)
CC(=NO)C1CCC2C3CCC4CC(=NO)CCC4(C)C3C(C)(O)CC12C (centres undefined) | 22 µM (inactive)
CCOc1ccccc1NC(=O)c1oc2ccccc2c1NC(=O)C1CCCO1 (centres undefined) | 12.6 µM (inactive)
O=C(CN1CCCCC1)Nc1nc(-c2ccc(F)c(F)c2)cs1 | > 79 µM (inactive)
CCN(CC)c1ccc(C2C(C(=O)OC(C)C)C(=O)CC(C)(O)C2C(=O)OC(C)C)cc1 (centres undefined) | 20.5 µM (inactive)
Cc1nc2c(c(=O)n1CCC1=CCCCC1)c1nc3ccccc3nc1n2/N=C/c1ccccc1 | 15.1 µM (inactive)
O=C(N/N=C/c1ccc(-c2cccc([N+](=O)[O-])c2)o1)c1ccc([N+](=O)[O-])cc1 | 11.8 µM (inactive)
O=C(C[C@H]1C/C=C\CC[C@H](Cc2ccc(F)cc2)C(=O)O[C@H](c2ccccc2)CNC1=O)N[C@H](CO)Cc1ccccc1 | 7.55 µM
O=C(CNC(=O)c1[nH]cnc1C(=O)NC(c1ccccc1)c1ccccc1)OCc1ccccc1 | 22.3 µM (inactive)
COc1ccc(-c2cc(NC=O)c3ncc(-c4ccc(C(C)=O)cc4)n3c2)cn1 | 10.1 µM (inactive)
Cc1ccc(C=NNc2nc3c([nH]2)c(=O)n(C)c(=O)n3C)cc1 | 11 µM (inactive)
COCCn1c(=NC(=O)c2nc3ccccc3s2)sc2cc(S(C)(=O)=O)ccc21 | > 79 µM (inactive)
COCCN1Cc2cccc(C(=O)Nc3cccc(-c4nc5ccccc5[nH]4)c3)c2C1=O | 3.71 µM
CCOC(=O)c1ccc(-c2ccc3ncnc(NCc4csc(C)n4)c3c2)o1 | > 79 µM (inactive)
COc1ccc(-c2cc(C(=O)N(C)Cc3ccccc3F)c3ccccc3n2)cc1OC | 13.5 µM (inactive)
CC1(C)Cc2c(c(N3CCOCC3)nc3sc4c(NN)ncnc4c23)CS1 | > 79 µM (inactive)
COc1ccc(-c2cc(-c3nnc(COC(=O)C4CC4C)o3)c3ccccc3n2)cc1OC (centres undefined) | 10.3 µM (inactive)
COc1cccc(C(=O)Nc2cc(C)c3c(=O)oc4ccccc4c3n2)c1 | > 79 µM (inactive)
CCn1c(SCC(=O)Nc2ccccc2N2CCCCC2)nc2c1c(=O)n(C)c(=O)n2C | 16.4 µM (inactive)
COc1ccc(-c2csc(NC(=O)c3ccc(OCC(=O)N4CCOCC4)c(OC)c3)n2)cc1OC | 10.9 µM (inactive)
COc1ccc(NC(=O)c2cc3c(=O)n(C)c4ccccc4c3n2C)cc1OC | > 79 µM (inactive)
COc1ccc2occ(C(=O)c3coc4ccc(O)c(CN(C)C)c34)c2c1 | 68 µM (inactive)
COc1cc(NC(=O)c2c(OC)cccc2OC)ccc1NC(=O)c1cc2ccccc2o1 | 13.4 µM (inactive)

SMILES | IC50
COc1ccc(CCNC(=O)C(=O)NCC2CCCN2S(=O)(=O)c2ccccc2)cc1OC (centres undefined) | 15.4 µM (inactive)
CC(=O)c1ccc(-c2[nH]c3ccccc3c2CCN2C(=O)c3ccccc3C2=O)cc1 | > 79 µM (inactive)
COC(=O)c1ccccc1NC(=O)c1nc2nc(C)cc(C)n2n1 | 67.2 µM (inactive)
COc1ccc(-c2nc(NC(=O)c3ccc(OCC(=O)N4CCOCC4)c(OC)c3)sc2C)cc1 | 23.7 µM (inactive)
CCC1(CC)NC(=O)N(CC(=O)OCC(=O)Nc2ccccc2[N+](=O)[O-])C1=O | 21.4 µM (inactive)
CS(=O)(=O)Nc1cccc(NC(=O)c2cccc3c(-c4cccc(C(N)=O)c4)coc23)c1 | 5.97 µM
O=C(Nc1nc(-c2ccccn2)cs1)c1ccc(-c2ccccc2F)o1 | > 79 µM (inactive)
COc1cc2[nH]c(=O)n3nc(-c4ccccc4)nc3c2cc1OC | 12.1 µM (inactive)
OC1CCN(c2c3c(nc4cc(-c5cccc(F)c5)nn24)CCCC3)CC1 | 23.8 µM (inactive)
O=c1c2ccccc2nc2c3ccccc3c(NCCO)nn12 | 70.6 µM (inactive)
CCOC(=O)C1=C(C)Nc2ccccc2N=C1NC(=O)c1oc2ccccc2c1COC | 6.98 µM
COc1ccc(-n2c(/C=C/c3ccc(O)cc3)nc3ccccc3c2=O)cc1 | 18.5 µM (inactive)
O=C(Nc1ccc(C(=O)N2CCOCC2)cc1)c1cnn2c(C(F)F)cc(-c3ccccc3)nc12 | > 79 µM (inactive)
Cn1c(=O)[nH]c(=O)c2c1nc(N(CCO)Cc1ccccc1)n2CCCc1ccccc1 | > 79 µM (inactive)
CCn1c(O)c(/C=N/N=C/c2ccccc2)c2ccc(C3=NNC(=O)CC3)cc21 | 10.7 µM (inactive)
O=C(CSc1nnc(Cc2cccs2)n1CCc1ccccc1)N1CCCc2ccccc21 | 13.9 µM (inactive)
CCCCCCn1c(C)nc2c(c1=O)c1nc3ccccc3nc1n2/N=C/c1ccco1 | 11.2 µM (inactive)
O=C(CCCN1C(=O)c2cccc3cccc(c23)C1=O)N1CCN(c2ccccc2O)CC1 | 19.5 µM (inactive)
Cn1c2ccccc2c2cc(/C=N/NC(=O)c3cc(O)ccc3O)ccc21 | > 79 µM (inactive)
N#Cc1c(-c2ccco2)cc(-c2cccnc2)nc1N | 26.1 µM (inactive)
CCN(CC)C(=O)c1ccc(-c2nnc(Nc3ccc(O)cc3)c3ccccc23)cc1 | 44.2 µM (inactive)
O=C(CSc1ccc2nnc(-c3ccc(F)cc3)n2n1)N1CCCc2ccccc21 | 16.8 µM (inactive)
CC(=O)Nc1ccc(-c2csc(NC(=O)Nc3ccccc3)n2)cc1 | 1.94 µM

SMILES | IC50
O=C(COC(=O)c1cc(-c2cccnc2)nc2ccccc12)Nc1ccc(F)cc1F | 32.5 µM (inactive)
O=C(NCc1ccco1)C(c1ccccc1)N(C(=O)Cc1cccs1)c1ccccc1F (centres undefined) | 22.9 µM (inactive)
COc1cc(-c2cc(C(=O)N3CCN(c4ccccn4)CC3)c3ccccc3n2)cc(OC)c1OC | 26.2 µM (inactive)
Cn1c(=O)n(CCc2ccccc2)c(=O)c2c1nc1n2CCCN1Cc1ccccc1 | 14.5 µM (inactive)
C[C@H](CO)N1C[C@H](C)[C@@H](CN(C)S(=O)(=O)c2ccccc2)Oc2ccc(NC(=O)Nc3ccccc3)cc2C1=O | 36.2 µM (inactive)
CCN(CC)C(=O)c1[nH]cnc1C(=O)NCC(=O)OCc1ccccc1 | 8.7 µM
CC(C)(C)NC(=O)c1cccc(NC(=O)c2ccc(NC(=O)c3ccco3)cc2)c1 | 18.9 µM (inactive)
CCOc1ccccc1Nc1nnc(SCc2nnc(-c3cc(OC)c(OC)c(OC)c3)o2)s1 | 12.8 µM (inactive)
Cc1ccc2cc3c(NC(=O)c4cccnc4)nn(C)c3nc2c1 | 18.5 µM (inactive)
COC(=O)c1cc(C(=O)OCC(=O)N2c3ccccc3NC(=O)C2(C)C)cc([N+](=O)[O-])c1 | 47.6 µM (inactive)
C[C@H]1Cn2cnc(C(=O)N[C@@H](Cc3c[nH]c4ccccc34)C(=O)OC(C)(C)C)c2C(=O)N1 | 24.7 µM (inactive)
COc1ccc(-c2oc3c(OC)c(OC)c(OC)c(O)c3c(=O)c2OC)cc1OC | > 79 µM (inactive)
COc1ccccc1NC(=O)c1cc(-c2ccc(OC)c(OC)c2)nc2ccccc12 | 7.39 µM
CC(=O)c1cccc(NC(=O)Nc2ccc3c(c2)N(C)C(=O)CS3)c1 | > 79 µM (inactive)
CC(OC(=O)c1cc(-c2cccnc2)nc2ccccc12)C(=O)Nc1ccc2ccccc2c1 (centres undefined) | 14.3 µM (inactive)
C[C@H](NC(=O)c1nc[nH]c1C(=O)NCC(=O)OCc1ccccc1)c1ccccc1 | 14.3 µM (inactive)
CCC(=O)Oc1cccc(C(=O)Nc2ccc(-c3nnc(-c4ccco4)o3)cc2)c1 | > 79 µM (inactive)
CCOC(=O)c1c(C)[nH]c(O)c1C=Nc1ccc(Cl)cc1 | 46.7 µM (inactive)
CCOC(=O)N1CCc2c(sc(NC(=O)CN3CCOCC3)c2C(=O)Nc2ccccc2)C1 | > 79 µM (inactive)
COc1ccc(NC(=O)c2cc(-c3ccccn3)nc3ccccc23)cc1S(=O)(=O)N(C)C | 5.87 µM
COC(=O)c1ccc(C(=O)OC)c(NC(=O)COC(=O)C23CC4CC(CC(O)(C4)C2)C3)c1 | 10.5 µM (inactive)
COC(=O)/C(=C(O)\C=C\c1ccccc1[N+](=O)[O-])c1nc2ccccc2[nH]1 | 13.5 µM (inactive)
COc1ccc(C(=O)Nc2cc(C)nn2-c2nc3ccccc3[nH]2)c(OC)c1 | 16.1 µM (inactive)

SMILES | IC50
NS(=O)(=O)c1ccc(CCNC(=O)c2ccc(C#CC3(O)CCCCC3)cc2)cc1 | 4.94 µM
CCOC(=O)N1CCN(C(=O)CSc2nc3ccccc3c(=O)n2-c2ccccc2)CC1 | 34.5 µM (inactive)
COc1ccccc1NC(=O)COc1ccc(C(=O)OCC(=O)NC(C)(C)C)cc1OC | 23.9 µM (inactive)
O=C(c1cc(=O)[nH]c2ccccc12)N1CCN(S(=O)(=O)c2ccc3ccccc3c2)CC1 | 17.4 µM (inactive)
COc1ccccc1NC(=O)COc1ccc(/C=N/NC(=O)c2cccnc2)cc1 | 21.1 µM (inactive)
CCOC(=O)c1cc2c(=O)n3ccccc3nc2n(Cc2ccco2)c1=NC(=O)c1cccnc1 | 23 µM (inactive)
COc1ccc(C(C(=O)NC2CCCC2)N(C(=O)c2snc(C(N)=O)c2N)c2cccc(O)c2)cc1 (centres undefined) | 13.3 µM (inactive)
CCCNC(=O)c1ccc(N2CCC3(CC2)CC(c2ccccc2)=NO3)c(NC(=O)c2ccco2)c1 | 8.75 µM
CC(C)(C)OC(=O)CNC(=O)c1[nH]cnc1C(=O)NCC(=O)OCc1ccccc1 | 4.16 µM
COc1cc(C(=O)N/N=C/c2sc(N3CCOCC3)nc2-c2ccccc2)cc(OC)c1OC | 30.9 µM (inactive)
COc1ccc2[nH]c(=O)c(CN(Cc3cccnc3)S(=O)(=O)c3ccccc3F)cc2c1 | 2.74 µM
COc1ccc(-c2cc(C(=O)NNC(=O)c3csc(N4CCOCC4)n3)c3ccccc3n2)cc1 | 7.31 µM
COc1cc(/C=N/NC(=O)NC23CC4CC(CC(C4)C2)C3)ccc1OCC(N)=O | 7.76 µM
CCC(=O)N1CCN(c2ccccc2NC(=O)c2ccc(-c3cccc([N+](=O)[O-])c3)o2)CC1 | > 79 µM (inactive)
CCN1C(=O)/C(=C/c2nc3ccccc3c(=O)[nH]2)c2ccccc21 | 27.9 µM (inactive)
CN(CC1COc2ccccc2O1)c1nc(-c2cccnc2)nc2ccccc12 (centres undefined) | 18.9 µM (inactive)
S=C(Nc1ccc(N2CCOCC2)cc1)Nc1ccc2nc(-c3ccco3)c(-c3ccco3)nc2c1 | 11.3 µM (inactive)
Cc1ccc(CN(C(=O)CNC(=O)c2cccs2)C(C(=O)NCC2CCCO2)c2ccccc2)cc1 (centres undefined) | 19.1 µM (inactive)
CC(C)(C)OC(=O)N1CCC[C@H]1c1nnc(SCC(=O)Nc2ccc(Br)cc2)o1 | 19.8 µM (inactive)
COC(=O)c1ccccc1NC(=O)c1ccc2nccnc2c1 | 48.8 µM (inactive)
